From article PMC12655551, “Design, Synthesis, and Evaluation of Pyrrole-Based Selective MAO-B Inhibitors with Additional AChE Inhibitory and Neuroprotective Properties Identified via Virtual Screening” (Pharmaceuticals, 2025)

Legend:
AChE = molecular target: T1, AChE (Electrophorus electricus, UniProt O42275); test: biochemical; format: biochemical; conditions: for inhibition at 200 µM: 200 µM compound; for IC50: means ± SD of three experiments
T1 construct: purchased Sigma-Aldrich, Hamburg, Germany
T1 sequence (O42275 24-633): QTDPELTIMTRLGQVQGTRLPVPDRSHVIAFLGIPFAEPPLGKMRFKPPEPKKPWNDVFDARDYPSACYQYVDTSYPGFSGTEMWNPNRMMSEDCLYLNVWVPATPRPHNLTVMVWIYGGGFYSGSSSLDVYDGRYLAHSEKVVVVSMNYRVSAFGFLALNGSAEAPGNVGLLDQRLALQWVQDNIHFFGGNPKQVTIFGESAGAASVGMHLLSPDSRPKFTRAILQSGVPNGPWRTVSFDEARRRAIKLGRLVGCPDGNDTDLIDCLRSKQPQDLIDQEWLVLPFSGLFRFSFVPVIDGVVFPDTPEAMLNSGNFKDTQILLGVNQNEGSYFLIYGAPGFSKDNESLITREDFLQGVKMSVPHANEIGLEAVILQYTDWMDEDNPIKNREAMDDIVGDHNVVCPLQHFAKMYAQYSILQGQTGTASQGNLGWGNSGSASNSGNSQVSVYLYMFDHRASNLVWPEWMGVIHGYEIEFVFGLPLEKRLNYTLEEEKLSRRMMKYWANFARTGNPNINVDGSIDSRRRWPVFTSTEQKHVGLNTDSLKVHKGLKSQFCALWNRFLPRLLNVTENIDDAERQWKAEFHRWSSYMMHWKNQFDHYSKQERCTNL
Method: (§1) AChE and BChE inhibitory activity of the newly synthesized pyrrole-based compounds was measured using the microplate assay described by Ellman et al. with the modifications added by López et al.. The compounds were tested at concentrations between 0.01 and 200 μM. First, they were dissolved in phosphate buffer (PBS) (8 mM K2HPO4, 2.3 mM NaH2PO4, 0.15 M NaCl, pH 7.5), assisted by the addition of no more than 5% MeOH. Then, they were serially diluted with PBS to provide the concentration range needed. Acetylcholinesterase from Electrophorus electricus and butyrylcholinesterase from equine serum (Sigma-Aldrich, Hamburg, Germany) were used with a substrate solution of 5,5′-dithiobis(2-nitrobenzoic acid) (DTNB) with acetylthiocholine iodide (ATCI) or butyrylthiocholine iodide (BTCI), respectively (0.04 M Na2HPO4, 0.2 mM DTNB, 0.24 mM ATCI or BTCI, pH 7.5). A total of 50 μL of AChE or BChE (0.25 U/mL, in PBS) and 50 μL of the tested compound solution were added to the wells. Incubation of the plates was performed at room temperature for 30 min. Then, 100 μL of substrate solution was added to start the enzymatic reaction. […] Enzyme activity was calculated as an inhibition percentage compared to an assay including buffer instead of an inhibitor.

BChE = molecular target: T2, BChE (Equus caballus, UniProt P81908); test: biochemical; conditions: for IC50: means ± SD of three experiments, read-out: BChE IC50; for inhibition at 200 µM: read-out: Inhibition Activity 200 µM BChE
T2 construct: purchased Sigma-Aldrich, Hamburg, Germany; host or cells: equine serum
T2 sequence (P81908 whole entry): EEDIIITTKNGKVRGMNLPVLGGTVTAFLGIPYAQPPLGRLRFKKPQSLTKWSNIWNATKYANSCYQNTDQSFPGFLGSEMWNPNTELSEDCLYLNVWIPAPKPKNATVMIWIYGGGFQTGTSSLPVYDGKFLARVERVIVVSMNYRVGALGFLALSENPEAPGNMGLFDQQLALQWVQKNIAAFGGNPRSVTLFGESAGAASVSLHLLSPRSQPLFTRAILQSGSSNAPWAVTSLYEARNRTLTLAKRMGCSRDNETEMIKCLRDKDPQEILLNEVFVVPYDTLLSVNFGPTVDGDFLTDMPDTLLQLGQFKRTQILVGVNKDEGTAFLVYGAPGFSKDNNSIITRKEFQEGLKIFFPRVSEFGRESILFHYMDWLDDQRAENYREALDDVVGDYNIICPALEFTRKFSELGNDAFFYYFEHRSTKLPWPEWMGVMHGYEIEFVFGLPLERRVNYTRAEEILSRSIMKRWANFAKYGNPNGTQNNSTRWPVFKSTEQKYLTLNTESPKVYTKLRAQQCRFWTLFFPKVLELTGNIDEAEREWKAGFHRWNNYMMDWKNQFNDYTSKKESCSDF
Method: as §1

[1] = molecular target: T3, recombinant human MAO-A (hMAOA) (Homo sapiens, UniProt P21397); test: MAO-A inhibition, fluorometric Amplex UltraRed assay; format: biochemical; conditions: for inhibition at 1 µM: 1 µM compound, read-out: Inhibition Activity 1 µM MAO-A; for IC50: means ± SD of three experiments, read-out: MAO-A IC50
T3 sequence (P21397 1-527): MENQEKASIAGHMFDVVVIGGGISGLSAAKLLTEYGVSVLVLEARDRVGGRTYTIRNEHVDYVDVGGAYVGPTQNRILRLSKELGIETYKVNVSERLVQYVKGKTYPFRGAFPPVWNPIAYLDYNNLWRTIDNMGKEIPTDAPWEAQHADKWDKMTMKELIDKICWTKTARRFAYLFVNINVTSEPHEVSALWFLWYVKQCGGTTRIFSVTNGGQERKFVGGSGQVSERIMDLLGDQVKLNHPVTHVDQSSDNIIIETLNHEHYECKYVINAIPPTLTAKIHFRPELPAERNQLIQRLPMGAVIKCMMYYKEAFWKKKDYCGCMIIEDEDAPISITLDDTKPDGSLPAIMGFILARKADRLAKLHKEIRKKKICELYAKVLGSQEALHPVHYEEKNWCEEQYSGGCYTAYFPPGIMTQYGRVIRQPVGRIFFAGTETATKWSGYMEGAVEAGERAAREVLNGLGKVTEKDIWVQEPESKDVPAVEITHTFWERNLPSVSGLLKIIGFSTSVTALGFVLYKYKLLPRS
Method: (§2) Monoamine oxidase (MAO) activity for both recombinant human MAO-A (hMAOA) and MAO-B (hMAOB) was assessed using a fluorometric assay based on the Amplex® UltraRed reagent. This method, originally reported by Bautista-Aguilera et al. and later adapted with minor changes by Kasabova-Angelova et al., detects hydrogen peroxide or peroxidase activity present in enzymes or biological samples. In this assay, Amplex® Red reacts in a 1:1 molar ratio with hydrogen peroxide in the presence of peroxidase, producing the red-fluorescent compound resorufin. Due to resorufin’s strong extinction coefficient (58,000 ± 5000 cm^−1·M^−1), measurements could be accurately taken using either fluorometric or spectrophotometric methods. […] The control conditions included the use of purified hMAOA or hMAOB in reaction buffer, enzyme solutions with hydrogen peroxide, and buffer alone. All the test compounds were initially prepared at a 1 µM final concentration. These compounds were combined with either hMAOA or hMAOB and loaded into a 96-well plate (with eight replicates per test compound), followed by incubation for 30 min at 37 °C in the dark. Subsequently, a 50 µL detection mix was added to each well. This mix contained Amplex® Red, horseradish peroxidase (HRP), and tyramine substrate, all prepared in a reaction buffer. As this enzymatic reaction proceeded continuously, the fluorescence signal was recorded every 30 min (at 0, 30, 60, 90, 120, and 150 min) to track enzymatic kinetics.

[2] = molecular target: T4, recombinant human MAO-B (hMAOB) (Homo sapiens, UniProt P27338); test: biochemical; format: biochemical; conditions: for inhibition at 1 µM: 1 µM compound
T4 sequence (P27338 1-520): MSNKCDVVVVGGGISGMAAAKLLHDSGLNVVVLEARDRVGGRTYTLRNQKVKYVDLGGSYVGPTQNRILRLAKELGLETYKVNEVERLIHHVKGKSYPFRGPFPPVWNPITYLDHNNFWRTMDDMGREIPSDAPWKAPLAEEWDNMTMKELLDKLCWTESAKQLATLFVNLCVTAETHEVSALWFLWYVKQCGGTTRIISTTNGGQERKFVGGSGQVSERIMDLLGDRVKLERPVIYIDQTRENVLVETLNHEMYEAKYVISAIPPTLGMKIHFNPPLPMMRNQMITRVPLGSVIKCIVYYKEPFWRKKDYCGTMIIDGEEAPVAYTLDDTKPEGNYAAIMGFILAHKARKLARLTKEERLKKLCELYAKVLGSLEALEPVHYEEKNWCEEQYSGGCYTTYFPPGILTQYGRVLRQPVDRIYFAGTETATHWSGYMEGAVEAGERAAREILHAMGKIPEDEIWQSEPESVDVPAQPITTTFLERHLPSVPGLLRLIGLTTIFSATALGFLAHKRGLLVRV
Method: as §2

[3] = means ± SD of three experiments

SMILES | inhibition at 200 µM (AChE) [%] | IC50 (AChE) [µM] | IC50 (BChE) [µM] | inhibition at 200 µM (BChE) [%] | inhibition at 1 µM [1] [%] | IC50 [1] [µM] | inhibition at 1 µM [2] [%] | IC50 [2, 3] [µM] | MAO-B IC50 [2, 3]
Cc1ccc(C)n1C(Cc1ccc(O)c(O)c1)C(=O)O (stereo not shown) [EM-DC-23, 3-(3,4-dihydroxyphenyl)-2-(2,5-dimethyl-1H-pyrrol-1-yl)propanoicacid] | 21.8 ± 2.14 | > 200 | > 200 | 0 | 98 ± 7.3 | > 100 | 98 ± 7.1 | > 100 | –
CCC(C(=O)O)n1c(C)ccc1C (stereo not shown) [EM-DC-21, 2-(2,5-dimethyl-1H-pyrrol-1-yl)butanoic acid] | 0 | > 200 | > 200 | 0 | 99 ± 7.1 | > 100 | 99 ± 7.1 | > 100 | –
COc1ccc(C)cc1-n1c(C)ccc1C [EM-DC-5, 1-(2-methoxy-5-methylphenyl)-2,5-dimethyl-1H-pyrrole] | 39.8 ± 2.64 | > 200 | 73.8 ± 5.96 | 74 ± 1.56 | 98 ± 7.3 | > 100 | 99 ± 7.1 | > 100 | –
Cc1cc(-n2c(C)ccc2C)c2ccccc2n1 [EM-DC-13, 4-(2,5-dimethyl-1H-pyrrol-1-yl)-2-methylquinoline] | 91.2 ± 1.22 | 3.81 ± 0.26 | 10.5 ± 0.17 | 83.81 ± 0.67 | 80 ± 7.1 | 0.38 ± 0.1 | 80 ± 7.1 | 0.41 ± 0.1 | –
Cc1ccc(C)n1-c1ccc(C(=O)O)cc1 [EM-DC-2, 4-(2,5-dimethyl-1H-pyrrol-1-yl)benzoic acid] | 93.6 ± 4.66 | 0.75 ± 0.06 | 158 ± 11.8 | 57.2 ± 0.58 | 75 ± 6.9 | 0.43 ± 0.1 | 75 ± 7.1 | – | –
Cc1ccc(C)n1C1CCN(Cc2ccccc2)CC1 [EM-DC-25, 1-benzyl-4-(2,5-dimethyl-1H-pyrrol-1-yl)piperidine] | 74.8 ± 1.47 | 87.2 ± 5.7 | 104 ± 2.5 | 69.8 ± 0.81 | 60 ± 7.1 | 0.33 ± 0.1 | 98 ± 7.1 | > 100 | –
Cc1ccc(C)n1-c1ccc(O)cc1 [EM-DC-1, 4-(2,5-dimethyl-1H-pyrrol-1-yl)phenol] | 7.52 ± 2.07 | > 200 | 173 ± 7.3 | 53.9 ± 2.14 | 55 ± 7.1 | 0.32 ± 0.1 | 99 ± 7.1 | > 100 | –
Cc1ccc(C)n1-c1ccc2c(c1)OCO2 [EM-DC-6, 1-(2H-1,3-benzodioxol-5-yl)-2,5-dimethyl-1H-pyrrole] | 65 ± 1.14 | 128 ± 1.87 | > 200 | 36.3 ± 3.54 | 97 ± 7.1 | > 100 | 98 ± 7.1 | > 100 | –
Cc1ccc(C)n1-c1ccc(C(=O)NCC(=O)O)cc1 [EM-DC-24, [4-(2,5-dimethyl-1H-pyrrol-1-yl)benzamido]acetic acid] | 24.1 ± 4.1 | > 200 | > 200 | 0 | 80 ± 7.1 | 0.58 ± 0.1 | 80 ± 7.1 | 0.59 ± 0.1 | –
Cc1ccc(C)n1-c1ccc(O)c(C(=O)O)c1 [EM-DC-18, 5-(2,5-dimethyl-1H-pyrrol-1-yl)-2-hydroxybenzoic acid] | 16 ± 1.4 | > 200 | > 200 | 0 | 98 ± 6.5 | > 100 | 98 ± 7.1 | > 100 | –
CCC(C)Cn1c(C)ccc1C (stereo not shown) [EM-DC-26, 2,5-dimethyl-1-(2-methylbutyl)-1H-pyrrole] | 12.8 ± 3.54 | > 200 | 106.5 ± 0.7 | 68.2 ± 1.6 | 97 ± 7.1 | > 100 | 97 ± 7.1 | > 100 | –
Cc1ccc(C)n1-c1ccc(C(=O)O)cc1O [EM-DC-17, 4-(2,5-dimethyl-1H-pyrrol-1-yl)-3-hydroxybenzoic acid] | 0 | > 200 | > 200 | 3.85 ± 2.99 | 99 ± 6.6 | > 100 | 99 ± 7.1 | > 100 | –
COc1cc2c(cc1OC)C(=O)C(CC1CCN(Cc3ccccc3)CC1)C2 (stereo not shown) [Donepezil, reference compound] | – | – | – | 92.25 ± 0.22 | – | – | – | – | –
Cc1ccc(C)n1CCN1CCOCC1 [EM-DC-16, 4-[2-(2,5-dimethyl-1H-pyrrol-1-yl)ethyl]morpholine] | 85.3 ± 2.43 | 11.8 ± 1.1 | > 200 | 48.8 ± 1.5 | 80 ± 7.3 | 0.46 ± 0.1 | 80 ± 7.1 | 0.47 ± 0.1 | –
Cc1ccc(C)n1CC(C)c1ccc(O)cc1 (stereo not shown) [EM-DC-11, 4-[1-(2,5-dimethyl-1H-pyrrol-1-yl)propan-2-yl]phenol] | 29 ± 2.47 | > 200 | > 200 | 30.6 ± 2.11 | 97 ± 6.9 | > 100 | 97 ± 7.1 | > 100 | –
Cc1ccc(C)n1CCc1ccccc1 [EM-DC-7, 2,5-dimethyl-1-(2-phenylethyl)-1H-pyrrole] | 11.9 ± 2.33 | > 200 | > 200 | 43.9 ± 1.7 | 80 ± 7.2 | 0.51 ± 0.1 | 75 ± 7.1 | 0.49 ± 0.1 | submicromolar range
Cc1ccc(C)n1C(CO)C(=O)O (stereo not shown) [EM-DC-22, 2-(2,5-dimethyl-1H-pyrrol-1-yl)-3-hydroxypropanoic acid] | 0 | > 200 | > 200 | 0 | 99 ± 7.2 | > 100 | 99 ± 7.1 | > 100 | –
COc1ccc2c3c1O[C@H]1C[C@@H](O)C=C[C@@]31CCN(C)C2 [Galanthamine, reference compound] | – | – | – | 89.16 ± 0.44 | – | – | – | – | –
